Data reported in patent US20180214430A1, “Selective Inhibitors Of i-NOS For Use Against Viral Infection” (priority 2015, published 2018).
“Also recorded” adds a separate entry of the source. Where two headings read alike, the source gives them in different places. Marks after values point to notes of the source that are not given here.

Experiments:
RSV [1] = assay: RSV replication in A549 epithelial cell cultures (number of infected cells, immunofluorescence); format: cell-based, respiratory syncytial virus (A2) Long strain; settings: for IC50: read-out: IC50 on RSV replication (concentration needed to give a 50% reduction in number of infected cells/well)
influenza virus = assay: microbe, parasite or virus in culture; format: cell-based, Human influenza virus A/Puerto Rico/8/34 (H1N1)
A549 cells = assay: Cytotoxicity assay (LDH in cell culture supernatant); format: cell-based, human; settings: uninfected and RSV infected A549 cells, concentration series
Method: To determine the level of cell damage following infection, 50 μl of the culture supernatant from each well were transferred to the corresponding well in 96 well microtitre plate. The LDH activity of the supernatant was measured by a LDH Assay kit, according to the manufacturer's instructions (Sigma, UK). 100 μl of LDH Assay solution was added to each well and the plate was incubated for 30 min at room temperature. After incubation, the absorbance was measured at two wavelengths, 490 nm (measurement) and 690 nm (reference), using a microplate reader (BioRad Laboratories, Hercules, Calif., USA). The percent LDH release was calculated by measuring the LDH content of lysed cells that remained attached to the plate.
To determine whether the concentration series of 1400 W we used was toxic to the A549 cells, and to eliminate the possibility that the reduction in viral antigen was due to toxicity, the concentration of lactate dehydrogenase (LDH) in the cell culture supernatant was measured. LDH is an enzyme that is only released by cells when the cell membrane integrity is reduced. Therefore the concentration of LDH in the cell culture supernatant is directly correlated to cell death.

[2] = test system: NO production by RSV infected A549 epithelial cells; assay: Nitric oxide released into cell culture supernatant of RSV infected cells (chemiluminescence); format: cell-based, human; settings: for NO production by these cells: epithelial cells, qualitative statement
RSV [3] = assay: Mouse infection model: viral load of the lungs (plaque assay); format: in vivo, balb/c mice; settings: 10 mg/kg i.p. every 12 h
total lung NOS activity = assay: Mouse infection model: nitrite concentration of lung homogenate; format: in vivo, balb/c mice; settings: 10 mg/kg i.p. every 12 h
[4] = test system: respiratory syncytial virus; settings: mouse model of respiratory syncytial virus; cited from earlier work
[5] = A549 cells, RPMI (1.15 mM L-Arg), after 24 h, ± 95% CI
[6] = epithelial cells, qualitative statement
[7] = RSV infected mice, day 3, 10 mg/kg
[8] = RSV infected mice, day 3, listed as 1400 W, 10 mg/kg

For `NCCCNCCCCN(CCCN)/[N+]([O-])=N/O` [Spermine (NONOate)], the “viral (RSV) replication” value (RSV [1]) was “inhibit”, the IC50 (RSV [1]) was 1500 ± 500 µM and the IC50 (influenza virus; read-out: IC50 on influenza virus replication (concentration needed to give a 50% reduction in number of infected cells/well)) was 600 ± 400 µM.

For `CC(=N)NCc1cccc(CN)c1` [1400W], the “number of RSV-infected cells” value (RSV [1]; A549 cells, 24 hrs, concentrations above 1 mM) was “significantly decreased”, the IC50 (RSV [1]; [5]) was 1100 ± 500 µM and the “viral (RSV) replication” value (RSV [1]; [6]) was “strongly inhibited”. For the same molecule, the IC50 (influenza virus; A549 cells, DMEM (0.35 mM L-Arg), after 24 h, ± 95% CI, read-out: IC50 on influenza virus replication (concentration needed to give a 50% reduction in number of infected cells/well)) was 3700 ± 1000 µM, the IC50 (influenza virus; A549 cells, RPMI (1.15 mM L-Arg), after 24 h, ± 95% CI, read-out: IC50 on influenza virus replication (concentration needed to give a 50% reduction in number of infected cells/well)) was 4600 ± 900 µM and the “toxicity: amount of LDH in the cell culture supernatant” value (A549 cells) was “not affected; also recorded: not toxic”. The “amount of NO released into the cell culture supernatant” value ([2]; RSV infected A549 cells, concentrations above 1 mM) was “significant decrease”, the “NO production by these cells” value [2] was “reduction” and the “Log10 pfu per gram lung” value (RSV [3]; Mock infected mice, day 3) was <0.18 Log10 pfu per gram lung. The “Log10 pfu per gram lung” value (RSV [3]; Mock infected mice, day 5) was <0.18 Log10 pfu per gram lung, the “Log10 pfu per gram lung” value (RSV [3]; [7]) was 0.51 ± 0.17 Log10 pfu per gram lung and the “Log10 pfu per gram lung” value (RSV [3]; [8]) was “significantly lower”. For the same molecule, the “Log10 pfu per gram lung” value (RSV [3]; RSV infected mice, day 5) was 1.18 ± 0.92 Log10 pfu per gram lung, the Nitrite lung homogenate (total lung NOS activity; Mock infected mice, day 3) was 26.0 (5.4) uM and the Nitrite lung homogenate (total lung NOS activity; Mock infected mice, day 5) was 21.6 (3.0) uM. For the same molecule, the Nitrite lung homogenate (total lung NOS activity; [7]) was 16.7 (1.9)* uM, the Nitrite lung homogenate (total lung NOS activity; [8]) was “significantly reduced” and the Nitrite lung homogenate (total lung NOS activity; RSV infected mice, day 5) was 23.7 (3.3) uM.

In the case of `COC(=O)[C@@H](N)CCCNC(=N)N[N+](=O)[O-]` [L-NAME], the “IC50 on RSV replication (concentration needed to give a 50% reduction in number of infected cells/well)” value (RSV [1]; [5]) is reported as “No effect”, the “viral (RSV) replication” value (RSV [1]; [6]) is reported as “did not inhibit; also recorded: not to inhibit” and the “IC50 on influenza virus replication (concentration needed to give a 50% reduction in number of infected cells/well)” value (influenza virus; [5]) is reported as “No effect”.

For `COc1ccnc(CCc2nc3ncccc3[nH]2)c1` [BYK191023], the “viral (RSV) replication” value (RSV [1]; [6]) was “strongly inhibited”, the IC50 (RSV [1]; human respiratory syncytial virus, A549 cells, RPMI (1.15 mM L-Arg), after 24 h, ± 95% CI) was 1100 ± 500 µM and the IC50 (influenza virus; unidentified influenza virus, A549, 24 h, read-out: IC50 on influenza virus replication (concentration needed to give a 50% reduction in number of infected cells/well), A549 cells, DMEM (0.35 mM L-Arg), after 24 h, ± 95% CI) was 4800 ± 400 µM. For the same molecule, the IC50 (influenza virus; unidentified influenza virus, A549, 24 h, read-out: IC50 on influenza virus replication (concentration needed to give a 50% reduction in number of infected cells/well), A549 cells, RPMI (1.15 mM L-Arg), after 24 h, ± 95% CI) was 4300 ± 800 µM and the “NO production by these cells” value [2] was “reduction”.

In the case of `CC1CCN=C(N)S1` (stereo not drawn) [AMT, 2-amino-5,6-dihydro-6-methyl-4H-1,3-thiazine], the viral titres [4] is listed as “increase”.

With `N=C(N)NCCC[C@H](N)C(=O)O` [L-arginine] the “IC50 on RSV replication (concentration needed to give a 50% reduction in number of infected cells/well)” value (RSV [1]; [5]) was “No inhibitory”.

For `Cl.N=c1c[n+](N2CCOCC2)[n-]o1` [SIN-1, 3-morpholinosydnonimine hydrochloride], the “viral (RSV) replication” value (RSV [1]; [6]) was “did not affect”.

With `CC(=O)N[C@H](C(=O)O)C(C)(C)SN=O` (racemic) [SNAP, S-nitroso-N-acetylpenicillamine] the “viral (RSV) replication” value (RSV [1]; [6]) was “did not affect”.
